Where two headings read alike, the source gives them in different places.

The assay has as its system HCV 1b-377-neo replicon cells. Description: HCV replicon assay, HCV 1b-377-neo replicon cells (1b FRET). The assay is classed as cell-based, Hepatitis C virus genotype 1b. The note with it: HCV 1b-377-neo replicon cells, HCV 1b genotype; for EC50: read-out: EC50 range against HCV 1b (Table 2, Range). In short, it runs like this: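 Compounds were tested in genotype 1b subgenomic replicon cells carrying a neomycin marker, alongside a matched replicon line with an NS5A Y2065H substitution that confers resistance to a reference NS5A inhibitor.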
In general terms: Replicon systems follow genome replication, usually without infectious particles.

Regarding `COC(=O)N[C@@H](C(=O)N1CCC[C@H]1c1ncc(-c2ccc(-c3ccc(-c4cnc([C@@H]5CCCN5C(=O)Cc5ccc(OC)cc5)[nH]4)cc3)cc2)[nH]1)c1ccccc1` [Example 84-63, methyl ((1R)-2-((2S)-2-(5-(4′-(2-((2S)-1-((4-methoxyphenyl)acetyl)-2-pyrrolidinyl)-1H-imidazol-5-yl)-4-biphenylyl)-1H-imidazol-2-yl)-1-pyrrolidinyl)-2-oxo-1-phenylethyl)carbamate], the EC50 (usually the concentration at which the effect is half-maximal) (Hepatitis C virus) was in the range of 0.001 to 0.999 nM. For `COC(=O)N[C@@H](C(=O)N1CCC[C@H]1c1ncc(-c2ccc(-c3ccc(-c4cnc([C@@H]5CCCN5C(=O)Cc5cccc(OC)c5)[nH]4)cc3)cc2)[nH]1)c1ccccc1` [Example 84-64, methyl ((1R)-2-((2S)-2-(5-(4′-(2-((2S)-1-((3-methoxyphenyl)acetyl)-2-pyrrolidinyl)-1H-imidazol-5-yl)-4-biphenylyl)-1H-imidazol-2-yl)-1-pyrrolidinyl)-2-oxo-1-phenylethyl)carbamate], the EC50 (Hepatitis C virus) lay in the range of 0.001 to 0.999 nM. On to `COC(=O)N[C@@H](C(=O)N1CCC[C@H]1c1ncc(-c2ccc(-c3ccc(-c4cnc([C@@H]5CCCN5C(=O)Cc5ccccc5OC)[nH]4)cc3)cc2)[nH]1)c1ccccc1` [Example 84-65, methyl ((1R)-2-((2S)-2-(5-(4′-(2-((2S)-1-((2-methoxyphenyl)acetyl)-2-pyrrolidinyl)-1H-imidazol-5-yl)-4-biphenylyl)-1H-imidazol-2-yl)-1-pyrrolidinyl)-2-oxo-1-phenylethyl)carbamate], for which the “EC50 range against HCV 1b (Table 2, Range)” value is given as “C-D”. Same read-out and setting: the entry for `COC(=O)N[C@@H](C(=O)N1CCC[C@H]1c1ncc(-c2ccc(-c3ccc(-c4cnc([C@@H]5CCCN5C(=O)Cc5ccccc5Cl)[nH]4)cc3)cc2)[nH]1)c1ccccc1` [Example 84-66, methyl ((1R)-2-((2S)-2-(5-(4′-(2-((2S)-1-((2-chlorophenyl)acetyl)-2-pyrrolidinyl)-1H-imidazol-5-yl)-4-biphenylyl)-1H-imidazol-2-yl)-1-pyrrolidinyl)-2-oxo-1-phenylethyl)carbamate] is “C-D”. As for `COC(=O)N[C@@H](C(=O)N1CCC[C@H]1c1ncc(-c2ccc(-c3ccc(-c4cnc([C@@H]5CCCN5C(=O)Cc5cccc(Cl)c5)[nH]4)cc3)cc2)[nH]1)c1ccccc1` [Example 84-67, methyl ((1R)-2-((2S)-2-(5-(4′-(2-((2S)-1-((3-chlorophenyl)acetyl)-2-pyrrolidinyl)-1H-imidazol-5-yl)-4-biphenylyl)-1H-imidazol-2-yl)-1-pyrrolidinyl)-2-oxo-1-phenylethyl)carbamate], the concentration giving a half-maximal response (EC50) (Hepatitis C virus) was in the range of 0.001 to 0.999 nM. Same read-out and setting: the figure for `COC(=O)N[C@@H](C(=O)N1CCC[C@H]1c1ncc(-c2ccc(-c3ccc(-c4cnc([C@@H]5CCCN5C(=O)Cc5ccc(Cl)cc5)[nH]4)cc3)cc2)[nH]1)c1ccccc1` [Example 84-68, methyl ((1R)-2-((2S)-2-(5-(4′-(2-((2S)-1-((4-chlorophenyl)acetyl)-2-pyrrolidinyl)-1H-imidazol-5-yl)-4-biphenylyl)-1H-imidazol-2-yl)-1-pyrrolidinyl)-2-oxo-1-phenylethyl)carbamate] is 1 to 99 nM; for `COC(=O)N[C@@H](C(=O)N1CCC[C@H]1c1ncc(-c2ccc(-c3ccc(-c4cnc([C@@H]5CCCN5C(=O)Cc5ccccc5C)[nH]4)cc3)cc2)[nH]1)c1ccccc1` [Example 84-69, methyl ((1R)-2-((2S)-2-(5-(4′-(2-((2S)-1-((2-methylphenyl)acetyl)-2-pyrrolidinyl)-1H-imidazol-5-yl)-4-biphenylyl)-1H-imidazol-2-yl)-1-pyrrolidinyl)-2-oxo-1-phenylethyl)carbamate] it is 0.001 to 0.999 nM; for `COC(=O)N[C@@H](C(=O)N1CCC[C@H]1c1ncc(-c2ccc(-c3ccc(-c4cnc([C@@H]5CCCN5C(=O)Cc5ccc(C)cc5)[nH]4)cc3)cc2)[nH]1)c1ccccc1` [Example 84-70, methyl ((1R)-2-((2S)-2-(5-(4′-(2-((2S)-1-((4-methylphenyl)acetyl)-2-pyrrolidinyl)-1H-imidazol-5-yl)-4-biphenylyl)-1H-imidazol-2-yl)-1-pyrrolidinyl)-2-oxo-1-phenylethyl)carbamate] it is 1 to 99 nM. On the same count and under the same terms, the figure for `COC(=O)N[C@@H](C(=O)N1CCC[C@H]1c1ncc(-c2ccc(-c3ccc(-c4cnc([C@@H]5CCCN5C(=O)Cc5cccc(C)c5)[nH]4)cc3)cc2)[nH]1)c1ccccc1` [Example 84-71, methyl ((1R)-2-((2S)-2-(5-(4′-(2-((2S)-1-((3-methylphenyl)acetyl)-2-pyrrolidinyl)-1H-imidazol-5-yl)-4-biphenylyl)-1H-imidazol-2-yl)-1-pyrrolidinyl)-2-oxo-1-phenylethyl)carbamate] is 1 to 99 nM; for `COC(=O)N[C@@H](C(=O)N1CCC[C@H]1c1ncc(-c2ccc(-c3ccc(-c4cnc([C@@H]5CCCN5C(=O)Cc5csc(C)n5)[nH]4)cc3)cc2)[nH]1)c1ccccc1` [Example 84-72, methyl ((1R)-2-((2S)-2-(5-(4′-(2-((2S)-1-((2-methyl-1,3-thiazol-4-yl)acetyl)-2-pyrrolidinyl)-1H-imidazol-5-yl)-4-biphenylyl)-1H-imidazol-2-yl)-1-pyrrolidinyl)-2-oxo-1-phenylethyl)carbamate] it is 1 to 99 nM; for `COC(=O)N[C@@H](C(=O)N1CCC[C@H]1c1ncc(-c2ccc(-c3ccc(-c4cnc([C@@H]5CCCN5C(=O)Cc5ccsc5)[nH]4)cc3)cc2)[nH]1)c1ccccc1` [Example 84-73, methyl ((1R)-2-oxo-1-phenyl-2-((2S)-2-(5-(4′-(2-((2S)-1-(3-thienylacetyl)-2-pyrrolidinyl)-1H-imidazol-5-yl)-4-biphenylyl)-1H-imidazol-2-yl)-1-pyrrolidinyl)ethyl)carbamate] it is 1 to 99 nM. As for `COC(=O)N[C@@H](C(=O)N1CCC[C@H]1c1ncc(-c2ccc(-c3ccc(-c4cnc([C@@H]5CCCN5C(=O)Cc5cc(C)no5)[nH]4)cc3)cc2)[nH]1)c1ccccc1` [Example 84-74, methyl ((1R)-2-((2)S-2-(5-(4′-(2-((2S)-1-((3-methyl-5-isoxazolyl)acetyl)-2-pyrrolidinyl)-1H-imidazol-5-yl)-4-biphenylyl)-1H-imidazol-2-yl)-1-pyrrolidinyl)-2-oxo-1-phenylethyl)carbamate], the EC50 lay in the range of 0.001 to 0.999 nM.

As to `COC(=O)N[C@@H](C(=O)N1CCC[C@H]1c1ncc(-c2ccc(-c3ccc(-c4cnc([C@@H]5CCCN5C(=O)CC5CCCCC5)[nH]4)cc3)cc2)[nH]1)c1ccccc1` [Example 84-75, methyl ((1R)-2-((2S)-2-(5-(4′-(2-((2S)-1-(cyclohexylacetyl)-2-pyrrolidinyl)-1H-imidazol-5-yl)-4-biphenylyl)-1H-imidazol-2-yl)-1-pyrrolidinyl)-2-oxo-1-phenylethyl)carbamate], the 50% effective concentration (EC50) (Hepatitis C virus) lay within 1 to 99 nM. The same measure, in the same setting: the figure for `COC(=O)N[C@@H](C(=O)N1CCC[C@H]1c1ncc(-c2ccc(-c3ccc(-c4cnc([C@@H]5CCCN5C(=O)[C@H](C)c5ccccc5)[nH]4)cc3)cc2)[nH]1)c1ccccc1` [Example 84-76, methyl ((1R)-2-oxo-1-phenyl-2-((2S)-2-(5-(4′-(2-((2S)-1-((2R)-2-phenylpropanoyl)-2-pyrrolidinyl)-1H-imidazol-5-yl)-4-biphenylyl)-1H-imidazol-2-yl)-1-pyrrolidinyl)ethyl)carbamate] is 0.001 to 0.999 nM.

On to `COC(=O)N[C@@H](C(=O)N1CCC[C@H]1c1ncc(-c2ccc(-c3ccc(-c4cnc([C@@H]5CCCN5C(=O)C5(c6ccccc6)CC5)[nH]4)cc3)cc2)[nH]1)c1ccccc1` [Example 84-77, methyl ((1R)-2-oxo-1-phenyl-2-((2S)-2-(5-(4′-(2-((2S)-1-((1-phenylcyclopropyl)carbonyl)-2-pyrrolidinyl)-1H-imidazol-5-yl)-4-biphenylyl)-1H-imidazol-2-yl)-1-pyrrolidinyl)ethyl)carbamate], for which the EC50 (Hepatitis C virus) fell in the range of 0.001 to 0.999 nM. Still for that read-out and setting: the figure for `COC(=O)N[C@@H](C(=O)N1CCC[C@H]1c1ncc(-c2ccc(-c3ccc(-c4cnc([C@@H]5CCCN5C(=O)C5(c6ccc(Cl)cc6)CC5)[nH]4)cc3)cc2)[nH]1)c1ccccc1` [Example 84-78, methyl ((1R)-2-((2S)-2-(5-(4′-(2-((2S)-1-((1-(4-chlorophenyl)cyclopropyl)carbonyl)-2-pyrrolidinyl)-1H-imidazol-5-yl)-4-biphenylyl)-1H-imidazol-2-yl)-1-pyrrolidinyl)-2-oxo-1-phenylethyl)carbamate] is 0.001 to 0.999 nM; for `COC(=O)N[C@@H](C(=O)N1CCC[C@H]1c1ncc(-c2ccc(-c3ccc(-c4cnc([C@@H]5CCCN5C(=O)C(C)(C)c5ccc(Cl)cc5)[nH]4)cc3)cc2)[nH]1)c1ccccc1` [Example 84-79, methyl ((1R)-2-((2S)-2-(5-(4′-(2-((2S)-1-(2-(4-chlorophenyl)-2-methylpropanoyl)-2-pyrrolidinyl)-1H-imidazol-5-yl)-4-biphenylyl)-1H-imidazol-2-yl)-1-pyrrolidinyl)-2-oxo-1-phenylethyl)carbamate] it is 0.001 to 0.999 nM. Consider `COC(=O)N[C@@H](C(=O)N1CCC[C@H]1c1ncc(-c2ccc(-c3ccc(-c4cnc([C@@H]5CCCN5C(=O)[C@H](OC)c5ccccc5)[nH]4)cc3)cc2)[nH]1)c1ccccc1` [Example 84-80, methyl ((1R)-2-((2S)-2-(5-(4′-(2-((2S)-1-((2R)-2-methoxy-2-phenylacetyl)-2-pyrrolidinyl)-1H-imidazol-5-yl)-4-biphenylyl)-1H-imdiazol-2-yl)-1-pyrrolidinyl)-2-oxo-1-phenylethyl)carbamate], for which the half-maximal effective concentration (EC50) lay within 0.001 to 0.999 nM.

Turning to `COC(=O)N[C@@H](C(=O)N1CCC[C@H]1c1ncc(-c2ccc(-c3ccc(-c4cnc([C@@H]5CCCN5C(=O)[C@@](OC)(c5ccccc5)C(F)(F)F)[nH]4)cc3)cc2)[nH]1)c1ccccc1` [Example 84-81, methyl ((1R)-2-oxo-1-phenyl-2-((2S)-2-(5-(4′-(2-((2S)-1-((2S)-3,3,3-trifluoro-2-methoxy-2-phenylpropanoyl)-2-pyrrolidinyl)-1H-imidazol-5-yl)-4-biphenylyl)-1H-imidazol-2-yl)-1-pyrrolidinyl)ethyl)carbamate], the EC50 (Hepatitis C virus) lay in the range of 0.001 to 0.999 nM.

The values above are taken from patent publication US8574563B2 (Bristol-Myers Squibb Company, priority 2006, dated 2013).
